# Experimental data taken from ChEMBL document CHEMBL1201862, “PubChem BioAssay data set” (2004).
#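 Step 1: Grow cells in 96-well plates. Step 2: Expose to compound for 48 hours at 5 concentrations. Step 3: Interpolate endpoints linearly; if unreached, use highest concentration. The concentration for 50% growth inhibition is given as GI50.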 Calls of active or inactive are those of the source. Cut-off read from the data, not from the text of the source: active = GI50 up to about 1.1 µM and inactive = higher.
# Tests used:
# Test in all cases: NCI tumour cell line growth inhibition, 48 h
# HCT-15 = system: HCT-15
# K562 = system: K562
# HCC 2998 = system: HCC 2998
# A549 = system: A549
# SF-539 = system: SF-539
# OVCAR-4 = system: OVCAR-4
# MDA-MB-231 = system: MDA-MB-231
# HCT-116 = system: HCT-116
# COLO 205 = system: COLO 205
# HT-29 = system: HT-29
# HOP-62 = system: HOP-62
# CAKI-1 = system: CAKI-1
# SK-MEL-2 = system: SK-MEL-2
# NCI-H23 = system: NCI-H23
# SNB-75 = system: SNB-75
# UACC-257 = system: UACC-257
# CCRF-CEM = system: CCRF-CEM
# EKVX = system: EKVX
# SR = system: SR
# HL-60 = system: HL-60
SMILES,GI50 (HCT-15) [µM],GI50 (K562),GI50 (HCC 2998),GI50 (A549),GI50 (SF-539),GI50 (OVCAR-4),GI50 (MDA-MB-231),GI50 (HCT-116),GI50 (COLO 205),GI50 (HT-29),GI50 (HOP-62),GI50 (CAKI-1),GI50 (SK-MEL-2),GI50 (NCI-H23),GI50 (SNB-75),GI50 (UACC-257),GI50 (CCRF-CEM),GI50 (EKVX),GI50 (SR),GI50 (HL-60)
CCCCCCCCCCCCOCC(COP(=O)(O)OCCN=[N+]=[N-])OC(=O)CCCCCCCCCCC (stereo not drawn),> 100,> 100 µM (inactive),> 100 µM (inactive),> 100 µM (inactive),> 100 µM (inactive),52.2 µM (inactive),> 100 µM (inactive),> 100 µM (inactive),> 100 µM (inactive),> 100 µM (inactive),> 100 µM (inactive),> 100 µM (inactive),> 100 µM (inactive),> 100 µM (inactive),,,,,,
CC(C)(C)C1=Nc2c(Br)cc(C(C)(C)C)cc2C(C(F)(F)F)(C(F)(F)F)O1,43.7,39.4 µM (inactive),29.9 µM (inactive),43.4 µM (inactive),37.8 µM (inactive),> 100 µM (inactive),,41.2 µM (inactive),> 100 µM (inactive),57.9 µM (inactive),> 100 µM (inactive),,> 100 µM (inactive),> 100 µM (inactive),> 100 µM (inactive),48 µM (inactive),32.7 µM (inactive),> 100 µM (inactive),54 µM (inactive),22.2 µM (inactive)
O=c1oc2c3ccc4ccccc4c3n(CCCN3CCCCC3)c2c2ccccc12,29.1,10.2 µM (inactive),> 100 µM (inactive),34 µM (inactive),19.4 µM (inactive),45.9 µM (inactive),,16.1 µM (inactive),10.9 µM (inactive),8.39 µM (inactive),> 100 µM (inactive),> 100 µM (inactive),> 100 µM (inactive),,52.2 µM (inactive),33.6 µM (inactive),17.3 µM (inactive),> 100 µM (inactive),3.59 µM (inactive),17.2 µM (inactive)
O=C1C(=Cc2c(O)cc(O)cc2O)C(=O)c2ccccc21,> 46.8,> 51.8 µM (inactive),> 41.9 µM (inactive),> 100 µM (inactive),> 42.7 µM (inactive),> 48.2 µM (inactive),,> 39.3 µM (inactive),> 41.5 µM (inactive),> 42.1 µM (inactive),> 100 µM (inactive),> 45.9 µM (inactive),> 40.1 µM (inactive),> 39.4 µM (inactive),26.3 µM (inactive),> 42.5 µM (inactive),29.9 µM (inactive),> 79.8 µM (inactive),13.6 µM (inactive),16.8 µM (inactive)
CCCCNC(=O)C1=C(C)NC(C)=C(C(=O)NCCCC)C1,> 100,,> 100 µM (inactive),> 100 µM (inactive),> 100 µM (inactive),> 100 µM (inactive),> 100 µM (inactive),> 100 µM (inactive),> 100 µM (inactive),> 100 µM (inactive),> 100 µM (inactive),> 100 µM (inactive),> 100 µM (inactive),> 100 µM (inactive),49.8 µM (inactive),> 100 µM (inactive),,58.7 µM (inactive),,71.1 µM (inactive)
COc1ccc(NC(=O)CC/C(CC(=O)C(C)(C)C)=N\NC(=O)C(N)=O)cc1,> 100,84.9 µM (inactive),> 100 µM (inactive),> 100 µM (inactive),> 100 µM (inactive),> 100 µM (inactive),,> 100 µM (inactive),> 100 µM (inactive),> 100 µM (inactive),> 100 µM (inactive),> 100 µM (inactive),> 100 µM (inactive),> 100 µM (inactive),,> 100 µM (inactive),> 100 µM (inactive),> 100 µM (inactive),> 100 µM (inactive),> 100 µM (inactive)
Nc1nc(Cl)cc(NCC(O)CO)n1 (stereo not drawn),> 100,> 100 µM (inactive),> 100 µM (inactive),> 100 µM (inactive),> 100 µM (inactive),> 100 µM (inactive),,> 100 µM (inactive),> 100 µM (inactive),> 100 µM (inactive),> 100 µM (inactive),,> 100 µM (inactive),> 100 µM (inactive),> 100 µM (inactive),> 100 µM (inactive),> 100 µM (inactive),> 100 µM (inactive),> 100 µM (inactive),> 100 µM (inactive)
CC(=O)OC[C@H]1CN(OC(C)=O)C[C@@H](n2cc(C)c(=O)[nH]c2=O)O1,> 100,> 100 µM (inactive),> 100 µM (inactive),> 100 µM (inactive),> 100 µM (inactive),> 100 µM (inactive),> 100 µM (inactive),> 100 µM (inactive),> 100 µM (inactive),,> 100 µM (inactive),> 100 µM (inactive),> 100 µM (inactive),,61.5 µM (inactive),> 100 µM (inactive),,> 100 µM (inactive),,> 100 µM (inactive)
O=C(CC1C(=O)Nc2ccccc2S1(=O)=O)Nc1ccc(Cl)cc1 (stereo not drawn),31.6,18.2 µM (inactive),18.4 µM (inactive),31.6 µM (inactive),13.8 µM (inactive),22.1 µM (inactive),,27.7 µM (inactive),,29.9 µM (inactive),,16.5 µM (inactive),21.1 µM (inactive),38.9 µM (inactive),16.9 µM (inactive),14.9 µM (inactive),20.3 µM (inactive),,4.7 µM (inactive),12.1 µM (inactive)
CCOC(=O)C1([Se]c2ccccc2)CCCC1=O (stereo not drawn),13.2,33.5 µM (inactive),25.9 µM (inactive),32.7 µM (inactive),19.6 µM (inactive),18.8 µM (inactive),,15.5 µM (inactive),16 µM (inactive),37.8 µM (inactive),96.8 µM (inactive),44.5 µM (inactive),32.8 µM (inactive),17.4 µM (inactive),23.6 µM (inactive),43.7 µM (inactive),15.2 µM (inactive),23.6 µM (inactive),14 µM (inactive),4.78 µM (inactive)
COc1cc(C2C(Cl)C(=O)N2NC(=O)c2ccc(NC(C)=O)cc2OC)ccc1O (stereo not drawn),19.5,18.1 µM (inactive),,32.1 µM (inactive),19.1 µM (inactive),39.1 µM (inactive),,16.9 µM (inactive),14.9 µM (inactive),15.1 µM (inactive),,31.1 µM (inactive),14.5 µM (inactive),17.7 µM (inactive),29.4 µM (inactive),,2.64 µM (inactive),13.6 µM (inactive),7.29 µM (inactive),20.3 µM (inactive)
CN1CCc2cc3c4cc2C1Cc1ccc(cc1)Oc1cc(ccc1O)CC1c2c(cc(O)c(c2O4)O3)CCN1C (stereo not drawn),1.91,0.9 µM (active),2.06 µM (inactive),2.45 µM (inactive),1.67 µM (inactive),2.22 µM (inactive),,1.41 µM (inactive),5.65 µM (inactive),2.8 µM (inactive),5.4 µM (inactive),10.5 µM (inactive),1.67 µM (inactive),3.6 µM (inactive),3.53 µM (inactive),1.95 µM (inactive),2.52 µM (inactive),7.08 µM (inactive),3.92 µM (inactive),4.65 µM (inactive)
Cc1ccc(S(=O)(=O)OCC/C(=C\[Si](C)(C)C)c2ccccc2)cc1,> 100,> 100 µM (inactive),> 100 µM (inactive),> 100 µM (inactive),> 100 µM (inactive),> 100 µM (inactive),,> 100 µM (inactive),> 100 µM (inactive),> 100 µM (inactive),> 100 µM (inactive),> 100 µM (inactive),> 100 µM (inactive),> 100 µM (inactive),> 100 µM (inactive),> 100 µM (inactive),> 100 µM (inactive),> 100 µM (inactive),24 µM (inactive),91 µM (inactive)
C/C(N)=C/C(=O)c1[nH]c(C(=O)O)cc1C1CCN(Cc2ccccc2)C1=O (stereo not drawn),29.9,20.8 µM (inactive),52.7 µM (inactive),34.4 µM (inactive),,47.8 µM (inactive),41.1 µM (inactive),22.2 µM (inactive),23.9 µM (inactive),31.8 µM (inactive),18.4 µM (inactive),40.8 µM (inactive),28.9 µM (inactive),22.8 µM (inactive),23.1 µM (inactive),28.6 µM (inactive),,30.1 µM (inactive),,
O=C(NC1CC1)c1c(O)[nH]c(=S)[nH]c1=O,> 100,> 100 µM (inactive),,> 100 µM (inactive),> 100 µM (inactive),> 100 µM (inactive),,> 100 µM (inactive),> 100 µM (inactive),> 100 µM (inactive),> 100 µM (inactive),> 100 µM (inactive),> 100 µM (inactive),> 100 µM (inactive),> 100 µM (inactive),> 100 µM (inactive),> 100 µM (inactive),,> 100 µM (inactive),> 100 µM (inactive)
C=C1C(=O)C23CC1CCC2C12CO[C@@H]4OCC(C)(CC[C@@H]1OC3=O)C42 (stereo partly drawn),2.9,7.69 µM (inactive),16.4 µM (inactive),10.9 µM (inactive),7.14 µM (inactive),,,2.08 µM (inactive),2.1 µM (inactive),2.54 µM (inactive),27 µM (inactive),2.38 µM (inactive),11.9 µM (inactive),6.04 µM (inactive),16.4 µM (inactive),4.98 µM (inactive),2.38 µM (inactive),15.5 µM (inactive),1.35 µM (inactive),0.569 µM (active)
